Test results taken from US10857180B2, “Pharmaceutical composition for improving health, cure abnormalities and degenerative disease, achieve anti-aging effect of therapy and therapeutic effect on mammals and method thereof” (priority 2014, dated 2020).

Key:
A-549 cell line = experiment: Scratch assay, A-549 cells; details: for time of restoration of the cell monolayer: dose not stated, 24 hours in the control; for restoration of the cell monolayer after 72 hours: ^64Zn 20 and 30 mcg/ml, ^39K 2 mg/ml, control restored after 24 hours
[1] = test system: Burkitt lymphoma (Namalwa line) cells; experiment: Immunocytochemical analysis (H-Score) of Namalwa cells; format: cell-based, human; details: for amount of N-cadherin-positive cells: exception ^39K 2 mg/ml and ^24Mg 2 mg/ml
Excerpt: However, articles about an important role of EMT in the study of lymphomas and leukemias as well have started coming out recently, which is an interesting stage in the research into the tumor process as a whole, since these tumors radically differ from “usual solid neoplasias” in their histogenesis and, accordingly, in their phenotypic characteristics. Thus, such comprehensive research into adhesion proteins and cell cytoskeleton in the tumor cells of Burkitt lymphoma and acute promyelocyte leukemia after the action of the group of components under study is a relevant and contemporary attempt of a deeper analysis of the modification of a cell phenotype of tumor cells in order to assess changes in the degree of their malignancy. Materials and methods for leukemia cell lines HL-60 and Namalva and cell culture conditions will now be described. […] The first plate was for coloring cells with trypan blue and the second one was for the MTT assay.
Initial concentrations of the components.
After preparation of the corresponding concentrations of the components, they were introduced into appropriate wells of the plate in which HL-60 or Namalva cell were in complete medium. The volume of the culture medium with cells was 100 mcl per well and the concentration of cells in the suspension was 3×10^5 cells/ml (3×10^6/plate). After the components were placed into the wells, the final concentration (component+cells in the suspension) became smaller and corresponded to the values given in the Table of Concentration Characteristics.
After the incubation the medium was removed from the wells and the formed tetraformazan crystals were dissolved in 50 mcl of dimethylsulphoxide (Applichem, Germany). The results were fixed using a multi-well spectrophotometer with an excitation wave length of 540 nm. The percent of inhibition of cell viability was calculated using the following formula: IR=(1−A 540 (experiment)/A540 (control))×100%. In carrying out the immunocytochemical (ICC) assay, cells on microscope glasses (cytospin preparations) were fixed in the solution (methanol+acetone (1:1)) for 2 hours at t−20° C. and then incubated with a 1% solution of bovine serum albumin (BSA) for 20 minutes.
Then such monoclonal antibodies as CD44, N-cadherin, ICAM and IgM were applied for the period of time specified in the manufacturer's instructions (30 to 60 minute time intervals), after which Poly Vue imaging system conjugated with peroxidase was used and the enzyme activity was detected using diaminobenzidine (ThermoScientific) as a substrate. After the immunocytochemical reaction, the preparations were rinsed with water and counterstained with hematoxylin and eosin for 15 to 30 seconds. The results were analyzed by a quantitative estimation of cells with the marker expression (increased brown color of cells corresponded to a higher degree of expression of the marker) using a light microscope and assessed using the classical H-Score method: S=1×A+2×B+3×C, where S is the H-Score index the values of which are within the scope of 0 (protein is not detectable) to 300 (high-level expression in 100% of the cells), A is a percentage of weakly stained cells, B is the percentage of moderately stained cells, and C the percentage of strongly stained cells.

[2] = test system: renal cell carcinoma (PA) cells; experiment: Transformation of PA tumor cells into type A/B cells (trypan blue); format: cell-based, rat; details: for concentration of cells of type A at first calculation: 10 hours after start, both concentration models; for time for 80% of the transformation into phenotype A: total time 140 hours
Excerpt: Staining of Cell Suspension with Trypan Blue and Visual Control of Changes in the Shape, Color and Size of the Cells will now be discussed. The visual control method was based on the observation of state of the plasma membrane permeability after the action of materials under study, and reflects the degree of membrane's damage, making it possible to estimate an ability of nuclear proteins to absorb the dye.
To make the analysis, the cell suspension, after it was exposed to the action of materials, in a volume of 20 mcl was mixed with 20 mcl of trypan blue solution and resuspended. The obtained solution was placed in a hemocytometer chamber for visual analysis and quantitative estimation of the cells. To make the quantitative estimation of the cells, they were separated from the substrate using Versene solution and counted by staining cells with trypan. A change in the color of a cell was indicative of the violation of intactness of the cell membrane, and the more pronounced was the coloration, the less viable the cell was. […] They are easily distinguishable from dark damaged cells and easily identified with ordinary light microscope.
Primary cell culture for our in vitro experiments was obtained by enzymatic treatment of tumor material (using trypsin solution) from a strain of renal cell carcinoma (PA) in a rat Visually (after its removal from the animal), the tumor looked as a nodular fleshy growth of a whitish-pink color of rather dense consistency, marginated from other tissues by a joint capsule. The main morphological signs of PA tumor in the animal can be described as follows. Small (1.5 to 2 grams) fragments without vessels and blastic lesions were excised aseptically from the surgically removed tumor and then cut them with scissors to smaller pieces of 0.2 to 0.3 mm in size and cultured in a solution of trypsin. The culture medium contained the following components: RPMI-1640 (Sigma, USA) as the base plus 10% newborn calf serum and 40 mcg/ml of gentamicin. Trypsinization was performed in a humidified atmosphere of 5% CO2 at 37° C. with constant mixing of the contents in a magnetic stirrer. The isolated cells were washed three times in a culture medium by centrifuging and before starting the experiment a quantitative assessment of cells was carried out in the Goryaev chamber with supravital staining of the cells with trypan blue.
Analysis of the effect of all components on the renal cell carcinoma (PA) was conducted to determine the relationship between the amount of the preparation (concentration characteristics of the component) and the quantitative characteristics of the cells. Assessment of the effect of the components was carried out on 2 concentration models with 30 and 300 thousand original tumor cells. After the cells were cultured, cell suspensions were prepared in the plates with the culture medium and an effect of the preparations (in various concentrations) on the tumor cells was assessed. The experiment was started with the concentration of 10 mg of the active substance per 1 ml of the solvent (saline with 5% glucose).
The amount of culture medium in each well was 200 mcl for 30 thousand cells and 2 ml for 300 thousand cells, respectively. The amounts of drugs (active substances) for 2 concentration models differed according to the amount of cells and culture medium, i.e., the amount of drug in the experiment with 300 thousand cells was ten times as large as compared with the same in the experiment with 30 thousand cells. The result of effects of the components is shown in FIGS. 22, 23 for light isotope components and in FIG. 25 for the elements with natural distribution of isotopes. Assessment of the effect of the components was performed by comparing the external factors of cells (color, size, shape) prior to the experiment and after staining. […]

[3] = test system: normal rat kidney cells (NRK cell line); experiment: Scratch assay, NRK cells; format: cell-based; details: various doses; as in the control
Method: The cells of A-549, A-431, NRK, HaCaT, MM-4, normal fibroblasts (derived from the Bank of Cell Lines from human and animal tissues, R. E. Kavetsky Institute of Experimental Pathology, Oncology and Radiobiology, National Academy of Sciences of Ukraine) were cultured in complete culture medium RPMI 1640/DMEM (PAA, Austria) (depending on the cell type) supplemented with 10% fetal calf serum (PAA, Austria) and incubated in 5% CO2 humidified atmosphere at 37° C. The culture medium was replaced in 2 to 3 days and the cells were passaged in 4 to 5 days.
Analysis of the influence of the components under study on the cell migration rate was performed using the scratch assay method. Cells (5×10^4/well) were seeded into the wells of a 12-well plate in 2 repeats in RPMI-1640/DMEM culture medium supplemented with 10% PBS, 40 mcg/ml of gentamicin and incubated in 5% CO2 humidified atmosphere at 37° C. for 24 hours.
The plate was incubated in a CO2 incubator for additional 48 hours. After the cells formed a dense monolayer it was damaged (by making a “scratch”) and the growth medium was replaced to remove cell debris and smooth the edges of the “scratch.” The rate of cell migration was analyzed using an inverted microscope and by photographing cells in the area of injury. The migration activity of cells was fixed at several time points (depending on the cell line analyzed). The microphotomicrographs were analyzed and the cell incubation time needed to restore the monolayer was determined for all experimental groups.

[4] = test system: A-549 cell line (human lung cancer); experiment: Type A cell transformation of A-549 cells, effect of solution storage; format: cell-based
Method: Alluding to the above, the effect of accumulation of antitumor properties of light isotopes containing materials on A-549 tumor cell line will now be discussed. When working with the preparations under study, it was noted that the functional activity of certain doses of the components increased over time after preparation of the solution and its subsequent storage at t+4° C. […] The preparation was stored at the temperature of […].

## O=S(=O)([O-])[O-].[24Mg+2] [^24Mg]
A-549 cell line
  time of restoration of the cell monolayer: 72 h
[1]
  IgM marker expression level: decrease in the expression level
  amount of N-cadherin-positive cells: in most cases increased
[2]
  concentration of cells of type A at first calculation: 100%
  changes (cell transformation) in the first 10 hours: 62%
  time for 80% of the transformation into phenotype A: ≤ 45 h
[2]; ^24Mg 0.4 mg/ml
  cells of type A: about 5%
[2]; ^24Mg 2 mg/ml
  cells of type A: 25%
  cells of type B: 75%
[2]; ^24Mg 10 mg/ml
  cells of type A: 100%

## [39K+].[Cl-] [^39K]
A-549 cell line
  restoration of the cell monolayer after 72 hours: incomplete
  time of restoration of the cell monolayer: 72 h
[1]
  IgM marker expression level: decrease in the expression level
  expression of CD44 marker: significant inhibition
  amount of N-cadherin-positive cells: in most cases increased
[2]
  time of transformation of 100% initial tumor cells into phenotype A: 80 h
  concentration of cells of type A at first calculation: 100%
  changes (cell transformation) in the first 10 hours: 40%
  time for 80% of the transformation into phenotype A: ≤ 20 h
[2]; ^39K 2 mg/ml
  A cells: About 50%
[2]; ^39K 10 mg/ml
  cells of type A: 100%
[3]
  time of restoration of the damaged monolayer: 30 h
[4]; ^39K 0.4 mg/ml, in both cases
  transformation of initial tumor cells to cells of type A: 100%
[4]; ^39K 10 mg/ml
  transformation of initial tumor cells to cells of type A: no transformational effect was found
[4]; ^39K sulphate form 2 mg/ml
  number of cells of type A after 20 days of storage vs first day: 2 fold

## O=S(=O)([O-])[O-].[64Zn+2] [^64Zn]
A-549 cell line
  restoration of the cell monolayer after 72 hours: incomplete
  time of restoration of the cell monolayer: 72 h
[1]
  IgM marker expression level: decrease in the expression level
  expression of CD44 marker: significant inhibition
  amount of N-cadherin-positive cells: in most cases increased
[1]; ^64Zn as sulfate 5 mcg/ml
  number of ICAM-positive cells, H-Score method: 210
[2]
  time of transformation of 100% initial tumor cells into phenotype A: ≤ 50 h
  changes (cell transformation) in the first 10 hours: 80%
  time for 80% of the transformation into phenotype A: ≤ 10 h
[2]; ^64Zn 0.08 mg/ml
  A cells: 100%
[2]; ^64Zn 0.128 mg/ml
  cells of type A: about 30%
[2]; assuming 50% of cells transformed
  cells of type A obtainable with 1 microgram of ^64Zn sulfate: 23438 cells
[2]; assuming 100% transformation
  cells of type A obtainable with 1 microgram of ^64Zn sulfate: 938 cells
[3]
  time of restoration of the damaged monolayer: 30 h
[4]; ^64Zn sulphate, after 28 days
  cells of type A: About 50%
